Laboratory results: patent US20030064989A1, “Inhibitors of cell proliferation, angiogenesis, fertility, and muscle contraction” (priority 2001, published 2003)
Several values for one entry are separate records, joined by “and”; a condition that tells them apart may be missing. Equal values may be shown once.

Tests used:
[1] = test system: hamster oviduct explants (infundibulum); experiment: Oocyte pickup rate (OPR) assay; format: cell-based, golden hamsters (Mesocricetus auratus)
Experimental: Hamsters were injected with 25 I.U. of human chorionic gonadotropin (hCG) on the evening of Day 4 of their estrous cycle. On the day of the experiment, approximately 12 hours after the injection of hCG, hamsters were sacrificed using CO2, and oviducts and ovaries were removed. During dissection the oviduct and ovary were separated. Ovaries were isolated in EBSS-HA and expanded follicles were poked with a dissecting needle to release the oocyte cumulus complexes (OCCs). Oocyte cumulus complexes were transferred to a fresh Petri dish and placed in EBSS-HA. The infundibulum was cut from the oviduct leaving part of the ampulla attached to function as a handle. […]
Oocyte cumulus complex pick-up rate was measured using hamster oviduct explants in an in vitro assay (Huang et al., 1997, supra; Knoll et al., 1998, supra; Talbot et al., 1998, supra). […] An oocyte cumulus complex was placed at the base of the infundibulum and the length of time needed for the complex to traverse a defined path to the ostium was recorded. […] Then the test smoke solution or chemical was added to the perfusion chamber and allowed to incubate for five minutes after which pickup-rate was measured again. […] Oocyte pickup-rate was measured again and this rate was recorded as the “recovery” measurement. […]

[2] = test system: chick chorioallantoic membrane (CAM); experiment: Chick chorioallantoic membrane (CAM) assay, CAM area
Experimental: The chick chorioallantoic membrane (CAM) assay is perhaps the most widely used assay for screening anti-angiogenic or growth inhibitory compounds (see, e.g. Ribatti et al., Int. J. Dev. Biol. 40:1189-1197 (1996)). Cell proliferation and angiogenesis were evaluated by measuring CAM area and BrdU labeling using the CAM assay as modified by Melkonian et al., J. Exp. Zool. (2001), in review. Fertilized chicken eggs were purchased from Hy-Line International (Lakeview, CA), then incubated at 37° C. at 85-90% relative humidity throughout the experiment. Experiments were done to evaluate cell proliferation, angiogenesis, and vascularization in CAMs between days 5 and 6 after fertilization. Albumin (2.5-3.0 cc) was removed on the fourth day after fertilization to drop the embryo away from the shell. Windows were then made in shells, and sealed with transparent tape to allow subsequent access to the CAM for experimental treatment. 200 μl of either EBSS-H or different concentrations of pure chemicals were added to the surface of each CAM at 10 AM on the fifth day after fertilization. A sham control group in which the window was opened and resealed was also included in each experiment. In all cases, the following five concentrations of test reagents were used, 5×10^−3 M, 5×10^−5 M, 5×10^−7M, 5×10^−9 M and 5×10^−11M. For 2-ethylpyridine and 3-ethylpyridine additional concentrations of 5×10^−12M, 5×10^−13M, 5×10^−14 M and 5×10^−15 M were used. For nicotine and nornicotine, concentrations of 5×10^−4 M, 5×10^−6 M, 5×10^−8 M and 5×10^−10 M were also used. Development was terminated at 10 AM on the sixth day after fertilization by fixing the embryo and the CAM with 3% glutaraldehyde in 0.1M cacodylate buffer (pH 7.4) for 2 hours at room temperature. A small volume of fixative was also injected under the CAM. The CAMs were later dissected from eggs, post-fixed in the same fixative for 24 hours at room temperature, then thoroughly rinsed in PBS.
At least 6 CAMs were used in each control and experimental group. Parameters which measure aspects of cell proliferation, angiogenesis, and vacularization were quantified for each CAM. These parameters include: (1) for cell proliferation—CAM area, BrdU labeling of nuclei; (2) for angiogenesis—blood vessel pattern, blood vessel area, blood vessel diameter, and blood vessel branching; (3) for vascularization—density of angiogenic clusters. The area of each CAM was measured by placing the CAMs in PBS in a Petri dish under a Wild-M5A dissecting microscope (Max ERB instrument Co., Burbank, CA), then measuring the longest and shortest length of each CAM with a ruler to the precision of 0.5 mm. The data were recorded into Excel spreadsheet. CAM area was calculated using the formula:
where A=longest length, B=longest width, π=3.14.
Means and standard deviations were then calculated for each control and treatment group. The treated group means were used to compare with control means to determine the effect of each chemical on CAM growth.
On the fifth day after fertilization, either EBSS-H or different concentrations of test chemicals were added to each CAM. A sham group in which windows were opened and resealed without adding any solution was also included to determine if the vehicle EBSS-H had any effect on CAM area. Development was terminated 24 hours later, and CAMs were measured as described in Materials and Methods.

[3] = test system: hamster oviduct explants (infundibulum); experiment: Ciliary beat frequency assay; format: cell-based, golden hamsters (Mesocricetus auratus)
Experimental: Ciliary beat frequency was measured using hamster oviduct explants in an in vitro assay (Knoll et al., 1998, supra; Talbot et al., 1998, supra). Perfusion chambers containing infundibula were placed on a Wild stereoscopic microscope (model BD-HF) and viewed at 50×. A video image was sent from the microscope to a Dell computer using a Hitachi camera and recorded using a VCR onto a Super VHS videotape. To measure cilia beat frequency the videotape was played back frame-by-frame. The VCR recorded 15 frames per second. Each frame represented a fraction of a cycle; the completion of a cycle was equivalent to one beat. Number of frames per cycle (or frames per beat) were measured and then converted into beats per second. Ten measurements were made for each infundibulum for each treatment group. Recordings were made for 40-60 seconds per region, which ensured an adequate amount of data for analysis.
For the ciliary beat frequency, oocyte pickup rate, and infundibular muscle contraction graphs, purified 3-ethylpyridine was purchased and dissolved in EBSS. A hamster infundibulum was exposed to a dose range of 9.33 e-7 to 9.33 e-4 mM (four dose groups total) for five minutes and oocyte pickup rate, ciliary beat frequency, and infundibular contraction were measured. […]

hamster infundibula = experiment: Infundibular muscle contraction assay; format: cell-based, golden hamsters (Mesocricetus auratus)
Description: The infundibular muscle contraction assay was developed after observing consistent infundibular contractions that slowed or ceased after treatment with mainstream smoke solutions. Perfusion chambers containing infundibula were placed on a Wild stereoscopic microscope (model BD-HF) and viewed at 50×. A video image was sent from the microscope to a Dell computer using a Hitachi camera and the infundibular contractions could be observed and measured on the computer monitor. As the infundibulum contracted, the image shown on the monitor moved a measurable distance. This distance was measured during each contraction by placing a ruler against the computer monitor. These values (in centimeters) were then converted to actual distance by capturing an image of a ruler under the microscope and converting the measured values to micrometers. Frequency was also measured by observing the contracting infundibula on the computer monitor. The number of times the infundibulum contracted per minute was recorded. Each parameter was measured four to six times per infundibulum per treatment group.
For the ciliary beat frequency, oocyte pickup rate, and infundibular muscle contraction graphs, purified 3-ethylpyridine was purchased and dissolved in EBSS. […]

[4] = five minutes, single infundibulum
[5] = CAM area, day 5-6 CAMs, 24 hours

## CCc1cccnc1 [3-ethylpyridine]
[1]; [4]
  concentration at which oocyte pickup rate was significantly inhibited: 9.33 e-7 mM
[1]; recovery period
  reversibility of effect on OPR after the recovery period: partially reversible
[2]; CAM area
  lowest effective dose lower than that of the single pyridine ring: 10 million
[2]; [5]
  LOAEL: 5.36e-10 mg/mL
  LOAEL (Molar): 5 pM
  NOAEL (Molar): 0.5 pM
[2]; Gallus gallus, 24 h, read-out: lowest effective dose on CAM area
  minimal effective concentration: 5e-06 µM and 5.4e-07 µg/mL
[3]; [4]
  concentration at which ciliary beat frequency was significantly inhibited: 9.33 e-7 mM
[3]; recovery period
  CBF during the recovery period: continued to decrease
Hamster infundibula; [4]
  concentration at which infundibular muscle contraction rate was significantly inhibited: 9.33 e-7 mM
Hamster infundibula; recovery period
  reversibility of effect on contraction rate after the recovery period: partially reversible
